What was measured:
[1] = target: D1 (Homo sapiens, UniProt P21728); type: binding
[2] = target: D2 (Homo sapiens, UniProt P14416); type: binding
[3] = target: 5-HT2A (Homo sapiens, UniProt P28223); type: binding
[4] = system: C57BL/6J mice; conditions: mouse, in vivo
[5] = target: SERT (Homo sapiens, UniProt P31645); type: binding
[6] = system: C57Bl/6 mice; test: Lack of precipitated withdrawal from oxycodone; conditions: for total withdrawal signs: oxycodone mice

Sequence of D2 (P14416 1-414 isoform P14416-2): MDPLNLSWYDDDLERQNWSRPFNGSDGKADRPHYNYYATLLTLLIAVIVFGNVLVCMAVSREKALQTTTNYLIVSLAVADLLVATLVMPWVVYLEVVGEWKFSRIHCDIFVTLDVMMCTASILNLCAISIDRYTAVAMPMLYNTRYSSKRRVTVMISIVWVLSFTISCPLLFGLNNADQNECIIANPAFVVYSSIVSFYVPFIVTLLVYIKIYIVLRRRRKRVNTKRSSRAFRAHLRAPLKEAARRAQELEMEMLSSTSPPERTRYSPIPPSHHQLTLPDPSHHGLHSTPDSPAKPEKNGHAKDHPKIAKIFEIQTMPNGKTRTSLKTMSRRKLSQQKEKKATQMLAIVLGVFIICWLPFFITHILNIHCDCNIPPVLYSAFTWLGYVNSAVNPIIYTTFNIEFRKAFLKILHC
Sequence of D1 (P21728 whole entry): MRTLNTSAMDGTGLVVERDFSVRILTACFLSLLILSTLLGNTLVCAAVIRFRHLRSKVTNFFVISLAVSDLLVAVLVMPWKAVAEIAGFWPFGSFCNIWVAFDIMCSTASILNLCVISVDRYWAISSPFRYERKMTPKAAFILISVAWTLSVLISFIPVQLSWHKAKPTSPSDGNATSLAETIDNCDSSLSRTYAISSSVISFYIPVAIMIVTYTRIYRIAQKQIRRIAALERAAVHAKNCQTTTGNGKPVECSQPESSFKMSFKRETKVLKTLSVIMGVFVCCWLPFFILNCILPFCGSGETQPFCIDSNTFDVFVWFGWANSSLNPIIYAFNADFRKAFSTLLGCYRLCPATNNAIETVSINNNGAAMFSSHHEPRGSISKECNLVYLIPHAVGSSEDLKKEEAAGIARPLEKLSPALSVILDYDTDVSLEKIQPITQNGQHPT
Sequence of 5-HT2A (P28223 whole entry): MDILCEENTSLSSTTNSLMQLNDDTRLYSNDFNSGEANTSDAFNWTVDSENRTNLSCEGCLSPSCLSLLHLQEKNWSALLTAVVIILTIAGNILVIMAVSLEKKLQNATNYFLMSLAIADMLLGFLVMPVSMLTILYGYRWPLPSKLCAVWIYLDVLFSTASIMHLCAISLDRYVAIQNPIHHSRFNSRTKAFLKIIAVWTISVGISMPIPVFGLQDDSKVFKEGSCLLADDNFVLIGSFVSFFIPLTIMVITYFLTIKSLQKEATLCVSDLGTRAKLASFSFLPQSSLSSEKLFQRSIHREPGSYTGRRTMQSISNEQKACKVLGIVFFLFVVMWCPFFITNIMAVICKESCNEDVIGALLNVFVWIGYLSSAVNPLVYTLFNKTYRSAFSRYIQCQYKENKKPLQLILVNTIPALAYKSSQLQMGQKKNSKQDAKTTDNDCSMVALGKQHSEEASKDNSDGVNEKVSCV
Sequence of SERT (P31645 whole entry, species assumed): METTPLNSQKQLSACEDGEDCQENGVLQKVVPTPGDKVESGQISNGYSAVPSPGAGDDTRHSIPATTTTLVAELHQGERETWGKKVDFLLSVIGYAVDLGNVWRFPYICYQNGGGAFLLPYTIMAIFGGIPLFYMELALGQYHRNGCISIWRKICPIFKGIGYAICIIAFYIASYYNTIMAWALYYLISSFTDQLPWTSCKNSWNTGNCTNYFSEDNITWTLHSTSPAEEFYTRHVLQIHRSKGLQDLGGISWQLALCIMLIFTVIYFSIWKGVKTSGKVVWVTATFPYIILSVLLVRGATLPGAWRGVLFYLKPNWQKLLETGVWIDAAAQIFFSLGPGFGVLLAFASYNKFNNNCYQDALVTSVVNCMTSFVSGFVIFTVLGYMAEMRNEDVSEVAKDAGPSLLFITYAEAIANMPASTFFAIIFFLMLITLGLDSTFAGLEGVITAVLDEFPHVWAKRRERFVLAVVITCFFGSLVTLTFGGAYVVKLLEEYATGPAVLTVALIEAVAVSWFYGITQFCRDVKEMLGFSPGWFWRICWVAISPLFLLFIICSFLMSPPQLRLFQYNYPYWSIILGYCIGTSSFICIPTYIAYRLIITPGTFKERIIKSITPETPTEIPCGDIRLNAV

**Q.** Which results are given for `O=C1CN2c3c(cccc3[C@@H]3CN(CCCc4noc5cc(F)ccc45)CC[C@@H]32)N1` [Example 3, (6bR,10aS)-8-(3-(6-fluorobenzo[d]isoxazol-3-yl)propyl)-6b,7,8,9,10,10a-hexahydro-1H-pyrido[3′,4′:4,5]pyrrolo[1,2,3-de]quinoxalin-2(3H)-one]?
**A.** Ki [1]: 13 nM; Ki [2]: 84 nM; Ki [3]: 3.1 nM

**Q.** Which Jumps [4] does the source give for `C=CCN1CC[C@]23c4c5ccc(O)c4O[C@H]2C(=O)CC[C@@]3(O)[C@H]1C5` [Naloxone] here?
**A.** The Jumps was 0.

**Q.** And the “Paw Tremors” value [4]?
**A.** The value was 0.87.

**Q.** What about the “Total Number of Signs” value [4] of the same compound?
**A.** The value was 2.2.

**Q.** And the “body weight loss” value [4]?
**A.** The value was 0.5%.

**Q.** What does the source list for `O=C1CN2c3c(cccc3[C@@H]3CN(CCCc4n[nH]c5cc(F)ccc45)CC[C@@H]32)N1` [Example 2, (6bR,10aS)-8-(3-(6-fluoro-1H-indazol-3-yl)propyl)-6b,7,8,9,10,10a-hexahydro-1H-pyrido[3′,4′:4,5]pyrrolo[1,2,3-de]quinoxalin-2(3H)-one]?
**A.** Ki [1]: 5.2 nM; Ki [2]: 15 nM; Ki [5]: 540 nM; Ki [3]: 2.6 nM

**Q.** With `O=C1CN2c3c(cccc3[C@@H]3CN(CCCOc4ccc(F)cc4)CC[C@@H]32)N1` [Example 1, (6bR,10aS)-8-(3-(4-fluorophenoxy)propyl)-6b,7,8,9,10,10a-hexahydro-1H-pyrido[3′,4′:4,5]pyrrolo[1,2,3-de]quinoxalin-2(3H)-one] as the compound, how does the “somatic signs or loss of body weight” value ([6]; chronic saline, 17.8 mg/kg s.c., relative to vehicle (p>0.05)) read?
**A.** Its value is “does not produce any significant effects”.

**Q.** And the “number of paw tremors or jumps” value ([6]; mice chronically administered oxycodone, doses <10 mg/kg s.c., vs vehicle)?
**A.** The value was “do not differ from mice administered vehicle”.

**Q.** And the body weight loss ([6]; mice receiving oxycodone chronically, <10 mg/kg)?
**A.** Its body weight loss is “does not induce further body weight loss”.

**Q.** And the total withdrawal signs ([6]; at 10 mg/kg, p<0.05, mainly wet dog shakes)?
**A.** Its total withdrawal signs is “significantly more total withdrawal signs”.

**Q.** And the total withdrawal signs ([6]; escalating doses (3, 10, 17.8 mg/kg s.c.), p<0.0001)?
**A.** Its total withdrawal signs is “induced greater total withdrawal signs”.
